The source of these data is patent US10034913B2, “Anti-angiogenic peptides and uses thereof” (Health Research, Inc., priority 2011, dated 2018).

One assay deals with PC-3M xenografts. Description: Growth of PC-3M xenografts in nude mice. It is filed as in vivo. To be noted: PSA administered in the tumor vicinity; control animals 267 mm^3. An excerpt: PSA purified to homogeneity from human seminal plasma is enzymatically active, and free of contaminating hk2, and complexes with carrier proteins/chaperones (Bindukumar, B., et al., J Chromatogr B Analyt Technol Biomed Life Sci, 2004. 813(1-2): p. 113-20).

A further assay relates to HUVEC cells. Description: Expression of angiogenesis/vasculogenesis genes in HUVEC, enzymatically active vs inactive PSA. It is filed as cell-based, human. The method, then:
Enzymatically active PSA, and PSA inactivated by incubation with Zinc^2+ [activity inhibited>75% by 5.0 μM of Zinc, inset FIG. 4] were compared for their respective effects on expression of genes involved in angiogenesis/vasculogenesis in HUVEC cells.

Assay [1] relates to FAK gene expression in HUVEC. Put plainly: FAK gene expression in HUVEC, Real-time QPCR. Format: cell-based, human. To be noted: 10 uM, average of three experiments. The method, then: FIG. 16 is a graphical representation of data showing modulation of FAK gene expression in HUVEC by f-PSA and PSA-P3L. To produce the results summarized in FIG. 16, nearly confluent monolayers of HUVEC were treated with 10 uM of f-PSA or PSA-P3L; RNA extracted and reverse transcribed. The c-DNA was amplified by Real-time QPCR using specific primers. The results shown are the average of three experiments. […] The other experimental details are similar to all gene expression studies. Thus, in one embodiment, the invention provides a method for inhibiting FAK gene expression in human endothelial cells comprising contacting the cells with one or more peptides of the invention.

Assay [2] relates to ANG2 gene expression in HUVEC. Description: ANG2 gene expression in HUVEC, Real-time QPCR. To be noted: 10 uM, average of three experiments. Format: cell-based, human. The method, then:
FIG. 18 is a graphical representation of data showing modulation of ANG2 gene expression in HUVEC by f-PSA, PSA-P31 and PSA-P3C. To produce the results summarized in FIG. 18, nearly confluent monolayers of HUVEC were treated with 10 uM of f-PSA, PSA-P3L or PSA-P3C; RNA extracted and reverse transcribed. The c-DNA was amplified by Real-time QPCR using specific primer. The results shown are an average of three experiments. […] Accordingly, in one embodiment, the invention provides a method for inhibiting ANG2 expression in human endothelial cells comprising contacting the cells with one or more peptides of the invention.

The next assay deals with PC-3M cells. To be noted: cited from earlier work.

As to “f-PSA: PSA isolated from human seminal plasma, free and enzymatically active; 237 amino acid protein (residues 25-261)”, the mean tumor volume with PC-3M xenografts is reported as 13 mm^3. In addition, in the assay with HUVEC cells, the “expression of blood vessel development genes FAK, FLT, KDR, TWIST1, Cathepsin D and P-38” value is given as “equally effective”; the “negative modulation of expression of pro-angiogenic growth factors bFGF and VEGF” value is listed as “equally effective”; the “positive modulation of expression of IFN-γ” value was “equally effective”. The FAK gene expression result in assay [1] is on record as “significantly down-regulates”. The ANG2 gene expression entry in assay [2] is “significantly inhibited”. The “effect on VEGF and IFN-γ gene expression and protein release” value in the assay on PC-3M cells is “distinctly dose dependent”.
